{
  "source": "ChEMBL document CHEMBL5465560",
  "about": "“Selectivity Literature for EUbOPEN Chemogenomic Library” (2024)",
  "key": {"[1]": {"molecular_target": "T1, Serine/threonine-protein kinase tousled-like 1 (Homo sapiens) (UniProt Q9UKI8)", "T1 sequence (whole entry)": "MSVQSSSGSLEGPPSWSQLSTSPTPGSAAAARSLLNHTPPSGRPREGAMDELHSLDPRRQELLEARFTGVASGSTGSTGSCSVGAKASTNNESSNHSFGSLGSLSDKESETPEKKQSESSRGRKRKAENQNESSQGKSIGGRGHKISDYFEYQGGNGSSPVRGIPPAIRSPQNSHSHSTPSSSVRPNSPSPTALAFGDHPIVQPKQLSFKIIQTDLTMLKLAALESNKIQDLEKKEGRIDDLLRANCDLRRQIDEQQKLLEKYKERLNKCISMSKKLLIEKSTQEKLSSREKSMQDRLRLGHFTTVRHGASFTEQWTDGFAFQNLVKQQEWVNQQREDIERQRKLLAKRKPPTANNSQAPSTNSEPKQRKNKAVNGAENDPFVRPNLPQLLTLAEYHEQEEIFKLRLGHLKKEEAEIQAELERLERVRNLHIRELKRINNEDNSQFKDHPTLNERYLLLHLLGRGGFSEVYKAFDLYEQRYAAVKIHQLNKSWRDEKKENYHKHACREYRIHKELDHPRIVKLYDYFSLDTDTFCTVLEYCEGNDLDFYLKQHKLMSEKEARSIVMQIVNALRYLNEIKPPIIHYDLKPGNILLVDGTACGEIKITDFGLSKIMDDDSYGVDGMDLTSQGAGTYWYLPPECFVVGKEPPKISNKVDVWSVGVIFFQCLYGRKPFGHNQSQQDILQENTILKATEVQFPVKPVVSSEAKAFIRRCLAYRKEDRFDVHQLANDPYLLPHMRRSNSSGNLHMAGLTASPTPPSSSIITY", "settings": "at 10 µM"}, "[2]": {"molecular_target": "Death-associated protein kinase 3 (Homo sapiens) (UniProt O43293)", "sequence (O43293 whole entry, looked up)": "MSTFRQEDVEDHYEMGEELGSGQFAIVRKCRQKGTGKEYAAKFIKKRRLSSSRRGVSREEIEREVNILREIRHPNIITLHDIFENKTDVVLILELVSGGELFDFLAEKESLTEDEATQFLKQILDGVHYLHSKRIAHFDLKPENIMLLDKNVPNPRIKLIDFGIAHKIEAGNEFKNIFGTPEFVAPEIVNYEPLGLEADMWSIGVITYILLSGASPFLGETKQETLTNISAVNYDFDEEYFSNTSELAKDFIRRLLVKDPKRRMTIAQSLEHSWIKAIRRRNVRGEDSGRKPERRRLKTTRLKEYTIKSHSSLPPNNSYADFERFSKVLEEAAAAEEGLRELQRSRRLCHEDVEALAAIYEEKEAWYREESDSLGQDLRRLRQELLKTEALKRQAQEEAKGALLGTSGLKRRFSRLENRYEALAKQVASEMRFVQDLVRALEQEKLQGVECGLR", "assay": "Selectivity interaction (Kinase panel (Z-LYTE Assay)) EUB0001632a DAPK3", "settings": "at 10 µM"}, "[3]": {"molecular_target": "T2, Ephrin type-B receptor 2 (Homo sapiens) (UniProt P29323)", "T2 sequence (whole entry)": "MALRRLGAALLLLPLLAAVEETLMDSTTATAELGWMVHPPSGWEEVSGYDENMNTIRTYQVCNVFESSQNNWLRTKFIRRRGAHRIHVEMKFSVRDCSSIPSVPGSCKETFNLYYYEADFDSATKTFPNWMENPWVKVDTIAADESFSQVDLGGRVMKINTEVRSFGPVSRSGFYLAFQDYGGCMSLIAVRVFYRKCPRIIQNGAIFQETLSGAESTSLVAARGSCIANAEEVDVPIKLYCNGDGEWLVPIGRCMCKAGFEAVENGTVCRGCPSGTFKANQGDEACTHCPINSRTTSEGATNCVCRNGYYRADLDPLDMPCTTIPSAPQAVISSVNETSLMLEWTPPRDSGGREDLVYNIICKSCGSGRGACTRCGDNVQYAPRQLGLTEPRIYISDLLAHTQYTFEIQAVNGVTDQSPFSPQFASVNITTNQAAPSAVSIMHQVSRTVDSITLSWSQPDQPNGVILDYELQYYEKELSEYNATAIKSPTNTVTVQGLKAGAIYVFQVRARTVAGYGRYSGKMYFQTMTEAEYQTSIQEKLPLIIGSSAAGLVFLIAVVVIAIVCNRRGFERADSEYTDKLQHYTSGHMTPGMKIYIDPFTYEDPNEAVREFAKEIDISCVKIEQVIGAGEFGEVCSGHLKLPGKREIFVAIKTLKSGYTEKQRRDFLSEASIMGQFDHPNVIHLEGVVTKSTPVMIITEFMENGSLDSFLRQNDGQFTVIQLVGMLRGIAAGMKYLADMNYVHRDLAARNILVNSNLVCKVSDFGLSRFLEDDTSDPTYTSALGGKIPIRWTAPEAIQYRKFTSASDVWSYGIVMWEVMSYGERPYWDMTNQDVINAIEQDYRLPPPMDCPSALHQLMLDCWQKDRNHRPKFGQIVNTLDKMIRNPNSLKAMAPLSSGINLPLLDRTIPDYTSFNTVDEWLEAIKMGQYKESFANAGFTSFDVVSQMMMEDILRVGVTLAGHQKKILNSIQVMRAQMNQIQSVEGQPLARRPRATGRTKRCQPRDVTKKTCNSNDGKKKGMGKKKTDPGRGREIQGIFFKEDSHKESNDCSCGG", "assay": "Selectivity interaction (KinomeScan (DiscoverX)) EUB0000666a EPHB2", "settings": "at 10 µM"}, "[4]": {"molecular_target": "T3, Serine/threonine-protein kinase MAK (Homo sapiens) (UniProt P20794)", "T3 sequence (whole entry)": "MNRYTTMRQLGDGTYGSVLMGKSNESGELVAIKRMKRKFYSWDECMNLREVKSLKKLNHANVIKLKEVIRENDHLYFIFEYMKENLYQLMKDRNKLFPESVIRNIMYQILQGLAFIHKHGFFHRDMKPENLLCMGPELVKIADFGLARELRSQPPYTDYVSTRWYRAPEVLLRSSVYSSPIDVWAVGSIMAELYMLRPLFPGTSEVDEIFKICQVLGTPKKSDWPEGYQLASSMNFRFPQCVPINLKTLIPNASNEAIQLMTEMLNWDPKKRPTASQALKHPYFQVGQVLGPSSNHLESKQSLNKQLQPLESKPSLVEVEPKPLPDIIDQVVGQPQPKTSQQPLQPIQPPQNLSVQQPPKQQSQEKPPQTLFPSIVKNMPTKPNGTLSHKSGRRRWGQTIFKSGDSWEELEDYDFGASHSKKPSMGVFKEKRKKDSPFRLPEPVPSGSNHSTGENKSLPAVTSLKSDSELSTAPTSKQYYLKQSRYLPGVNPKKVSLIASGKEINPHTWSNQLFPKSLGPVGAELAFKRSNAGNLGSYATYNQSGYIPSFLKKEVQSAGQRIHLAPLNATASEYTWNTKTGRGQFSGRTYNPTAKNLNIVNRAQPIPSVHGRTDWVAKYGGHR", "assay": "Selectivity interaction (KinomeScan (DiscoverX)) EUB0000666a MAK", "settings": "at 10 µM"}, "[5]": {"molecular_target": "Tyrosine-protein kinase HCK (Homo sapiens) (UniProt P08631)", "sequence (P08631 2-526 limits assumed)": "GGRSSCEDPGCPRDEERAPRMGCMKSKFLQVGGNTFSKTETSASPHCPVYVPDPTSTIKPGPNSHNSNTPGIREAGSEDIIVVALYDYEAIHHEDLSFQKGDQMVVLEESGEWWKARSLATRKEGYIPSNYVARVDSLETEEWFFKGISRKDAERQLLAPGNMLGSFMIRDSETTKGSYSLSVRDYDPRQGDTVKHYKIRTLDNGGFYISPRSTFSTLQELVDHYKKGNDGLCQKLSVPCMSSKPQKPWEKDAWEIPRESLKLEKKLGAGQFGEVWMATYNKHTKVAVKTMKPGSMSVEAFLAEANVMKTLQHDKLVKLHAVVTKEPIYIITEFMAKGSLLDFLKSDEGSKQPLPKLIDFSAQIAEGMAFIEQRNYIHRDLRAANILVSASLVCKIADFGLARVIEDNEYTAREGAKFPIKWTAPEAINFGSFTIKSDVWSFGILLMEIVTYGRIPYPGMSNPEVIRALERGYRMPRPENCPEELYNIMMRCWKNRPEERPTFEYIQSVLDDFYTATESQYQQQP", "assay": "Selectivity interaction (KinomeScan (DiscoverX)) EUB0001619a HCK", "settings": "at 1 µM"}, "[6]": {"molecular_target": "Cyclin-dependent kinase 14 (Homo sapiens) (UniProt O94921)", "sequence (O94921 whole entry)": "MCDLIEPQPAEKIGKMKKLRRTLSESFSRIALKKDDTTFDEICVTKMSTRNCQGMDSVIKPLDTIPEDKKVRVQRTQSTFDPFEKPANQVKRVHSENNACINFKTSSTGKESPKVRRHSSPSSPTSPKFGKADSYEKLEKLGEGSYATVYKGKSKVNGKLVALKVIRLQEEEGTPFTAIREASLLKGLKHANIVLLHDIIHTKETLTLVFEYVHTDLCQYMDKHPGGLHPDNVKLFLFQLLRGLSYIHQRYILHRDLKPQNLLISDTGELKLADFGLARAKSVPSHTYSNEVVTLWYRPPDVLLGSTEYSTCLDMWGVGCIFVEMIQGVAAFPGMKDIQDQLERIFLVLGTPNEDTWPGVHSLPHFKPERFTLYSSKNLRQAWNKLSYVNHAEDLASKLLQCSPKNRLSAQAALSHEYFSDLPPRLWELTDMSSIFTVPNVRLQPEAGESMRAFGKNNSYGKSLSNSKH", "assay": "Selectivity interaction (Ambit KINOMEscan and KiNATiv profiling in Jurkat cells) EUB0000090b CDK14", "format": "cell-based", "settings": "at 1 µM"}},
  "data": [
    {"smiles": "COCC(=O)NC/C=C/c1ccc2ncnc(Nc3ccc(Oc4ccc(C)nc4)c(C)c3)c2c1", "note": "[CP-724714]", "values": [
      {"measurement": "% of control", "setting": "[1]", "value": 79, "unit": "%"}
    ]},
    {"smiles": "Cn1cc(-n2cnc3c(NCc4nc5cc(Cl)c(Cl)cc5[nH]4)nc(N4CCOCC4)nc32)cn1", "values": [
      {"measurement": "% of control", "setting": "[2]", "value": -3.73, "unit": "%"}
    ]},
    {"smiles": "O=C(NOC[C@H](O)CO)c1ccc(F)c(F)c1Nc1ccc(I)cc1F", "values": [
      {"measurement": "% of control", "setting": "[3]", "value": 73, "unit": "%"},
      {"measurement": "% of control", "setting": "[4]", "value": 100, "unit": "%"}
    ]},
    {"smiles": "N#Cc1cccc(-c2c[nH]c3ncnc(N4CCOCC4)c23)c1", "values": [
      {"measurement": "% of control", "setting": "[5]", "value": 100, "unit": "%"}
    ]},
    {"smiles": "CN(C)C/C=C/C(=O)Nc1ccc(C(=O)N2CCCC(Nc3ncc(Cl)c(-c4c[nH]c5ccccc45)n3)C2)cc1", "note": "(stereo unspecified)", "values": [
      {"measurement": "% of control", "setting": "[6]", "value": 69, "unit": "%"}
    ]}
  ]
}
